The test system of assay [1] is Malassezia furfur CBS 1878. Description: Minimum inhibitory concentration, broth dilution. The assay is classed as cell-based. To be noted: M. furfur CBS 1878; for minimum inhibition concentration (MIC) value: classic broth dilution protocol. The text has this:
Inhibition is defined as giving less than 20% growth compared to a control, as determined by spectrophotometric optical density (OD) reading at 620 nm, using the formula % of growth=[(ODproduct−OCabsorbance-control)]/(ODpositive growth-control).
(§1) As noted above, the anti-dandruff active portion of the anti-dandruff composition comprises (or consists essentially of) a combination of at least two of the three described anti-dandruff actives (i.e., the punicalagin composition, the first monoterpenoid composition, and the second monoterpenoid composition). The combinations are based on the additive or synergistic relationship between the individual anti-dandruff actives. Inhibition testing of the individual anti-dandruff actives to determine MIC levels followed the principles and general methods disclosed in C. Lens-Lisbonne, et al. “Methods for the evaluation of antibacterial activity of essential oils: applications to essences of thyme and cinnamon,” J. Pharm. Belg., 1987, 42(5): 297-302; and C. Lisbonne “Evaluation of bacteriostatic activity of essential oils and their components,” Doctoral Thesis, Pharmacy Faculty, Marseille, F R 1988. Interactions of bi-component mixtures (Fractional Inhibitory Concentration) were evaluated in accordance with the method described by J. L. Pons et al., “Evaluation of antimicrobial interactions between chlorhexidine, quaternary ammonium compounds, preservatives and excipients,” J. Appl. Bacteriol., 1992, 73, 395-400, to assess their additive or synergistic effects.
Briefly, as is commonly known by those skilled in the art of the instant disclosure, assessment of Malassezia furfur inhibition may be accomplished following standard and accepted practices, such as that described in U.S. Patent Application Publication No. 2008/0249186. Accordingly, an external testing laboratory performed a series of against Malassezia furfur to evaluate antimicrobial activity and interactions (see Lens, et al. “Methods for the evaluation of antimicrobial activity of essential oils,” J. Pharm. Belg. 1987). Inhibitory activity testing was conducted by mixing 100 μl of various dilutions of the test product at a double concentration with an equal volume (100 μl) of a double strength Difco™ Sabouraud dextrose broth supplemented with olive oil, inoculated between 2 to 6×10^5 cfu/mL. After incubation (24-72 hours, at 32.5° C.±2.5° C.), a spectrophotometric reading at 620 nm is performed and the percentage of growth calculated from optical density (OD) measuring each concentration with respect to a positive growth control according to the following equation: % of growth=[ODproduct−ODabsorbance-control)]/(ODpositive growth-control).
Each concentration was tested in triplicate, and two assays were performed per product. The positive growth control consisted of 100 μl 1% agar solution mixed with 100 μl of inoculated broth.

The test system of assay [2] is Malassezia furfur CBS 1878. Description: Association testing, checkerboard titration (FIC index). The assay is classed as cell-based. To be noted: M. furfur CBS 1878; sample B alone.
Text: as §1
Study of Associations. After obtaining the MIC levels for each of the anti-dandruff actives by broth dilution method, a checkerboard titration technique was performed to assess the synergistic activity of the combinations. In order to evaluate the activity of the combinations of the anti-dandruff actives, a Fractional Inhibitory Concentration index (FICindex) was calculated: (FICindex)=FIC^A+FIC^B, where FIC^A and FIC^B represent the minimum concentrations inhibiting the M. furfur growth for anti-dandruff actives A and B, respectively. And FIC^A=MIC^Acombination/MIC^Aalone, and FIC^B=MIC^Bcombination/MIC^Balone.] A mean FIC index was calculated based on the following equation: FICindex=FIC^A+FIC^B. Synergism is defined as FIC≤0.75; additive as FIC˜1; indifference as 1<FIC≤2; and antagonism is defined as FIC>2, as reported by J. L. Pons; N. Bonnaveiro; J. Chevalier; and A. Crémieux, “Evaluation of antimicrobial interactions between chlorhexidine, quaternary ammonium compounds, preservatives and excipients,” J. Appl. Bacteriology, 1992, 73(5), 395-400.

Bounds are passed on as bounds.

For `CC1=CCC(C(C)C)=CC1` [GTP, gamma-terpinene], in assay [1], the “minimum inhibition concentration (MIC) value” is over 1%. Moreover, the “MIC B Alone %” value in assay [2] was over 1%.
Regarding `Cc1ccc(C(C)C)c(O)c1` [TML, thymol], the “minimum inhibition concentration (MIC) value” in assay [1] is recorded as 0.05%. In assay [2], the “MIC B Alone %” value is 0.05%.
With `Cc1ccc(C(C)C)cc1` [PCY, para-cymene], in assay [1], the “minimum inhibition concentration (MIC) value” is reported as 0.5%. Further, the “MIC B Alone %” value in assay [2] worked out at 0.5%.
On to `O=c1oc2c(O)c(O)cc3c(=O)oc4c(O)c(O)cc1c4c23` [EA, Ellagic Acid], for which, in assay [1], the “Minimum Inhibitory Concentration, Test 1” value is reported as 0.5%; the “Minimum Inhibitory Concentration, Test 2” value was found to be 0.5%; the “minimum inhibition concentration (MIC) value” is listed as 0.5%. In addition, in assay [2], the “MIC B Alone %” value stood at 0.5%.
As for Punicalagins A&B, in assay [1], the “Minimum Inhibitory Concentration, Test 1” value is recorded as 0.05%; the “Minimum Inhibitory Concentration, Test 2” value is reported as 0.05%; the “minimum inhibition concentration (MIC) value” is 0.05%. The “MIC B Alone %” value in assay [2] was 0.05%.

Source of the values: patent US11857661B2, “Anti-dandruff composition” (Kancor Ingredients Ltd, priority 2018, dated 2024).
